± gives the standard deviation of the averaged measurements.
Columns and labels:
MK-1775 = compound: C=CCn1c(=O)c2cnc(Nc3ccc(N4CCN(C)CC4)cc3)nc2n1-c1cccc(C(C)(C)O)n1 [MK-1775]; assay: surviving fraction relative to DMSO-only wells; higher = less growth inhibition; conditions: exposure time: 5 days
How it was run: (§1)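 Each tumour cell line was screened three times, and only lines with replicate Pearson r >0.7 and median Z' >0.3 were kept. Cells in log phase were seeded at 250–500 per well in 384-well plates, left 24 hours, then exposed continuously for five days to inhibitors at 0.5, 1, 5, 10, 50, 100, 500 and 1000 nM. Viability was read as CellTiter-Glo luminescence, with surviving fraction normalised to the median of DMSO-only wells.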

BLEOMYCIN = compound: Cc1c(N)nc([C@H](CC(N)=O)NC[C@H](N)C(N)=O)nc1C(=O)N[C@H](C(=O)N[C@H](C)[C@@H](O)[C@H](C)C(=O)N[C@H](C(=O)NCCc1nc(-c2nc(C(=O)NCCC[S+](C)C)cs2)cs1)[C@@H](C)O)[C@@H](OC1OC(CO)C(O)C(O)C1OC1OC(CO)C(O)C(OC(N)=O)C1O)c1cnc[nH]1 [BLEOMYCIN]; assay: as above; conditions: exposure time: 5 days
How it was run: as §1

Test System | surviving fraction (MK-1775; 0.5 nM) | surviving fraction (MK-1775; 1 nM) | surviving fraction (MK-1775; 5 nM) | surviving fraction (MK-1775; 10 nM) | surviving fraction (MK-1775; 50 nM) | surviving fraction (MK-1775; 100 nM) | surviving fraction (MK-1775; 500 nM) | surviving fraction (MK-1775; 1000 nM) | surviving fraction (BLEOMYCIN; 0.5 nM) | surviving fraction (BLEOMYCIN; 1 nM) | surviving fraction (BLEOMYCIN; 5 nM) | surviving fraction (BLEOMYCIN; 10 nM) | surviving fraction (BLEOMYCIN; 50 nM) | surviving fraction (BLEOMYCIN; 100 nM) | surviving fraction (BLEOMYCIN; 500 nM) | surviving fraction (BLEOMYCIN; 1000 nM)
DU4475 BREAST | 1.1 ± 0.26 | 1.15 ± 0.088 | 1.01 ± 0.068 | 0.889 ± 0.059 | 0.686 ± 0.28 | 0.554 ± 0.23 | 0.102 ± 0.034 | 0.037 ± 0.0056 | 0.675 ± 0.13 | 0.792 ± 0.17 | 0.774 ± 0.2 | 0.77 ± 0.075 | 0.742 ± 0.13 | 0.62 ± 0.1 | 0.49 ± 0.11 | 0.378 ± 0.13
H23 LUNG | 1.04 ± 0.018 | 1.02 ± 0.041 | 1.04 ± 0.06 | 1.03 ± 0.1 | 0.86 ± 0.054 | 0.632 ± 0.045 | 0.285 ± 0.023 | 0.209 ± 0.034 | 0.955 ± 0.013 | 0.954 ± 0.032 | 0.886 ± 0.057 | 0.763 ± 0.028 | 0.509 ± 0.026 | 0.338 ± 0.0076 | 0.193 ± 0.014 | 0.118 ± 0.011
HCC78 LUNG | 0.883 ± 0.12 | 0.875 ± 0.14 | 1.07 ± 0.32 | 1.02 ± 0.13 | 0.827 ± 0.15 | 0.839 ± 0.08 | 0.105 ± 0.022 | 0.0803 ± 0.02 | 0.839 ± 0.12 | 0.932 ± 0.32 | 0.892 ± 0.2 | 0.774 ± 0.39 | 0.376 ± 0.14 | 0.499 ± 0.13 | 0.202 ± 0.075 | 0.0983 ± 0.032
HCC202 BREAST | 1.137 ± 0.0059 | 1.13 ± 0.2 | 1.01 ± 0.21 | 0.991 ± 0.061 | 0.908 ± 0.17 | 0.712 ± 0.22 | 0.347 ± 0.08 | 0.361 ± 0.075 | 1.13 ± 0.17 | 1.18 ± 0.095 | 1.09 ± 0.49 | 1.02 ± 0.14 | 1.1 ± 0.11 | 0.992 ± 0.17 | 0.862 ± 0.25 | 0.738 ± 0.1
HCC1395 BREAST | 0.885 ± 0.071 | 1.169 ± 0.0022 | 1.03 ± 0.2 | 1.14 ± 0.12 | 0.935 ± 0.1 | 0.931 ± 0.12 | 0.741 ± 0.11 | 0.618 ± 0.083 | 0.865 ± 0.04 | 0.881 ± 0.14 | 0.84 ± 0.1 | 0.902 ± 0.042 | 0.823 ± 0.12 | 0.872 ± 0.074 | 0.761 ± 0.12 | 0.73 ± 0.065
HCC1806 BREAST | 1.05 ± 0.047 | 0.996 ± 0.076 | 1.13 ± 0.032 | 1.02 ± 0.14 | 0.631 ± 0.082 | 0.303 ± 0.036 | 0.049 ± 0.0061 | 0.0403 ± 0.0015 | 0.771 ± 0.058 | 0.824 ± 0.1 | 0.682 ± 0.035 | 0.56 ± 0.0059 | 0.397 ± 0.0062 | 0.2757 ± 0.0015 | 0.108 ± 0.0021 | 0.0743 ± 0.0095
HCC1954 BREAST | 0.762 ± 0.1 | 0.775 ± 0.012 | 1.08 ± 0.13 | 0.8722 ± 0.0025 | 0.719 ± 0.017 | 0.625 ± 0.0078 | 0.203 ± 0.013 | 0.102 ± 0.0042 | 0.4128 ± 0.0025 | 0.433 ± 0.01 | 0.42 ± 0.043 | 0.456 ± 0.0085 | 0.467 ± 0.037 | 0.415 ± 0.064 | 0.364 ± 0.061 | 0.417 ± 0.01
HCT15 LARGE INTESTINE | 1.033 ± 0.0098 | 1.02 ± 0.032 | 1 ± 0.037 | 1.02 ± 0.035 | 1.05 ± 0.037 | 1 ± 0.05 | 0.521 ± 0.087 | 0.121 ± 0.0021 | 0.883 ± 0.065 | 0.887 ± 0.025 | 0.852 ± 0.011 | 0.85 ± 0.019 | 0.805 ± 0.022 | 0.66 ± 0.044 | 0.15 ± 0.019 | 0.104 ± 0.0095
